Patent publication US20100297109A1, “METHODS FOR INHIBITING FASCIN” (Cornell University, priority 2007, published 2010)

Experiments:
4T1 cells = settings: serum, Shan et al. 2005; cited from earlier work
villin = target: T1, villin (Homo sapiens, UniProt P09327); assay: Binding of macroketone to villin in vitro
T1 sequence (P09327 1-827): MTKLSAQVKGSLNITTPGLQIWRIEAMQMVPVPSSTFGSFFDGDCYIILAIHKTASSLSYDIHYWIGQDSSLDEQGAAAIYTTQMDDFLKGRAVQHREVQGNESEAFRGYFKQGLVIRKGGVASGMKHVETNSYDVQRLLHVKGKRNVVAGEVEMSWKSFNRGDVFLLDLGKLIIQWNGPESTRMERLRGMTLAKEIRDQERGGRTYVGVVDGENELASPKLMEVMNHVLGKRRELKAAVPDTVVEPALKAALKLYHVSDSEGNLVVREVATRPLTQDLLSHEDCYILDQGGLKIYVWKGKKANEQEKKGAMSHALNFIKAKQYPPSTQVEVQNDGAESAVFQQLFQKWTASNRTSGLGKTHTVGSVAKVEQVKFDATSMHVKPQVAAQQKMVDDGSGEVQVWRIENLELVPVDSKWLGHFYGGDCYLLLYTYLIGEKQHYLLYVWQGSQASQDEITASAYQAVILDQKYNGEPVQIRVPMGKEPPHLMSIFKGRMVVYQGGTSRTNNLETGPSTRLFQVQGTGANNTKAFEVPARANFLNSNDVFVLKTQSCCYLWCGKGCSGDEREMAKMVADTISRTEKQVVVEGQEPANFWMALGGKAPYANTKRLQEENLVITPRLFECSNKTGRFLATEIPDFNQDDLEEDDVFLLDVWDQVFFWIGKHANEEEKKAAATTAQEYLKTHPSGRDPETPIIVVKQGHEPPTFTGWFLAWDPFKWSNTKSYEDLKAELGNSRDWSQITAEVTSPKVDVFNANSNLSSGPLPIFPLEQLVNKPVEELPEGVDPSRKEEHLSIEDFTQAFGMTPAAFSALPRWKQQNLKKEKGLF

fascin [1] = target: T2, fascin (Homo sapiens, UniProt Q16658); assay: F-actin bundling assay, low-speed centrifugation (F-actin pelleting); assay type: biochemical; design: GST (N); made in house; host or cells: Escherichia coli BL21
Method: Whole cell lysates from 4T1 mouse breast tumor cells were made. After preclearing the cell lysate with immobilized neutravidin biotin binding protein (Pierce, IL, USA) to remove biotin and avidin-binding proteins, the cell lysates were loaded to a column packed with the biotin-labeled macroketone (conjugated to neutravidin beads). A control column packed with free biotin and neutravidin beads was run side-by-side. After washing the column with 10 bed volumes of lysis buffer with 300 mM NaCl, the bound proteins were eluted with 0.1 M Glycine-HCl at pH 2.8 according to the manufacturer's instruction. […] Protein Expression and Purification. Recombinant GST-fascin fusion protein was produced in BL21 Escherichia coli. A 1-liter culture was grown to an A600 reading of 1.0 and then induced by addition of 0.3 mM isopropyl 1-thio-D-galactopyranoside (IPTG) for 12 hours at 25° C. Cells were flash frozen and then lysed by sonication in Tris-buffered saline. The supernatant was then incubated with glutathione-Sepharose for 2 h at 4° C. After extensive washing, GST-fascin was eluted and concentrated with a Centricon Plus-20 (Millipore). To remove the GST tag from the fusion protein, beads were incubated with thrombin overnight at 4° C. The supernatant was collected and concentrated. […] Actin bundling activity was measured by low speed centrifugation assay and fluorescence microscopy. […]

fascin [2] = target: T2, fascin; assay: GST-fascin and biotin-macroketone interaction; assay type: binding; design: made in house; host or cells: Escherichia coli BL21; settings: excess unlabeled compound
Method: Whole cell lysates from 4T1 mouse breast tumor cells were made. After preclearing the cell lysate with immobilized neutravidin biotin binding protein (Pierce, IL, USA) to remove biotin and avidin-binding proteins, the cell lysates were loaded to a column packed with the biotin-labeled macroketone (conjugated to neutravidin beads). A control column packed with free biotin and neutravidin beads was run side-by-side. After washing the column with 10 bed volumes of lysis buffer with 300 mM NaCl, the bound proteins were eluted with 0.1 M Glycine-HCl at pH 2.8 according to the manufacturer's instruction. […] Protein Expression and Purification. Recombinant GST-fascin fusion protein was produced in BL21 Escherichia coli. A 1-liter culture was grown to an A600 reading of 1.0 and then induced by addition of 0.3 mM isopropyl 1-thio-D-galactopyranoside (IPTG) for 12 hours at 25° C. Cells were flash frozen and then lysed by sonication in Tris-buffered saline. The supernatant was then incubated with glutathione-Sepharose for 2 h at 4° C. After extensive washing, GST-fascin was eluted and concentrated with a Centricon Plus-20 (Millipore). To remove the GST tag from the fusion protein, beads were incubated with thrombin overnight at 4° C. The supernatant was collected and concentrated. GST-fascin and Biotin-macroketone Interaction. […] Proteins associated with biotin-macroketone were precipitated with Untralink-immobilized NeutrAvidin agarose (Pierce). After extensive washing, bound proteins were eluted with SDS sample buffer and resolved by 10% SDS-PAGE. F-Actin Bundling Assay. Actin bundling activity was measured by low speed centrifugation assay and fluorescence microscopy. In low-speed centrifugation assay, monomeric rabbit G-actin was induced to polymerize at room temperature in F-actin buffer (20 mM Tris-HCl at pH 8, 1 mM ATP, 1 mM DTT, 2 mM MgCl2 and 100 mM KCl). Recombinant fascin proteins or control buffer were subsequently incubated with F-actin for 60 min at room temperature and centrifuged for 30 min at 10,000 g in an Eppendorf 5415D table-top centrifuge.

[3] = test system: MDA-MB-231 human breast tumor cells; assay: Experimental lung metastasis of MDA-MB-231 cells in NOD-SCID mice, bioluminescence imaging; assay type: in vivo, mouse; settings: 10 mg/kg I.P. every other day for seven weeks
Method: Breast Tumor Metastasis in Mice. All animal work was performed in compliance with the Institutional Animal Care and Use Committee of the Weill Medical College. Spontaneous 4T1 mouse breast tumor metastasis assay was done as described previously (Shan et al. 2005). NOD-SCID immunodeficient mice were used for experimental lung metastasis experiments. MDA-MB-231 human breast tumor cells expressing the TGL reporter were trypsinized and washed with PBS. This artificial TGL reporter gene encodes a triple fusion protein with herpes simplex virus 1 thymidine kinase fused to the N-terminus of enhanced GFP and firefly luciferase fused to the C-terminus of GFP (Ponomarev et al. 2004). Subsequently 1×10^6 cells in 0.2 ml PBS were injected into the lateral tail vein. […] Three randomly selected fields (10×objectives) on the lower side of the insert were photographed, and the cells on the lower surface of the insert were counted.
Third, the experimental metastasis model with MDA-MB-231 human tumor cells in immunodeficient mice was used to investigate the role of fascin in tumor metastasis and the effect of macroketone on the metastasis of human tumors in mice (FIG. 8 E-H). […] GFP-positive cells were enriched by fluorescence-activated cell sorting. […] The metastasis of tumor cells to the lung was monitored by non-invasive bioluminescence imaging (Minn et al. 2005). […]

In the case of COC1C=CCCCCC(=O)CCC(C)=CC(C)C1O (stereo not shown) [macroketone, Migrastatin ketone], the “formation of lamellipodia at the leading edge” value (4T1 cells) is given as “inhibited the formation of lamellipodia”, the “binding to villin in vitro” value (villin) is given as “did not bind” and the “fascin-induced bundling of F-actin polymers” value (fascin [1]; with fascin) is given as “significantly decreased”. The “formation of F-actin bundles, compound alone” value (fascin [1]; without fascin) was “had no effect”, the “competition of binding of biotin-conjugated macroketone to fascin” value (fascin [2]) was “efficiently competed” and the “competition of binding of biotin-conjugated macroketone to fascin” value (fascin [2]; listed as unlabeled macroketone) was “decreased the binding”. The “reduction of metastasis of MDA-MB-231 cells (photon flux)” value [3] was greater than 80%.
